Assay results taken from article PMC2943923, “Human Integrin α3β1 Regulates TLR2 Recognition of Lipopeptides from Endosomal Compartments” (PLoS ONE, 2010).

Legend:
U937 macrophages [1] = assay: IL-6 secretion (ELISA) of U937 macrophages stimulated with Pam3CSK4; type: cell-based, human; settings: 100 ng/ml Pam3CSK4, 6 hours; for decrease in Pam3CSK4-induced IL-6 secretion relative to control cells: 100 ng/ml concanamycin A, p = 0.037; for decrease in Pam3CSK4-induced IL-6 secretion relative to control cells / mean secretion of IL-6 by inhibitor-treated cells: 500 µM bafilomycin A1, 1 µM monensin, 5 µM CPZ; for mean secretion of IL-6 by inhibitor-treated cells: inhibitor added 30 minutes before: 100 ng/ml concanamycin A
Experimental: (§1) The human monocyte cell line U937 (American Type Culture Collection) was maintained in RPMI (Mediatech) with 10% FBS and 1% penicillin-streptomycin. For all experiments, U937 monocytes were differentiated at a concentration of 5×10^5 cells per well in 24-well plates with 100 nM phorbol 12-myristate 13-acetate (Sigma) for 48 hours. All experiments were performed under serum-free conditions, unless otherwise noted.
The TLR2/1 triacylated lipid ligand, Pam3CSK4 (Invivogen), biotinylated Pam3CSK4 (Axxora) or Pam3CSK4-rhodamine (Invivogen) were resuspended in endotoxin-free water. Pam3CSK4 was used at a concentration of 100 ng/ml to stimulate macrophages, and Pam3CSK4-biotin and Pam3CSK4-rhodamine were used at indicated concentrations.
Inhibition of endosomal acidification was achieved using inhibitors of V-ATPase, concanamycin A (100 ng/ml) and bafilomycin A1 (500 µM) (Sigma) or the ionophore monensin (1 µM) (Sigma). Clathrin-mediated endocytosis was inhibited with chlorpromazine (CPZ) (5 µM) (Sigma). Concentrations were chosen based on prior studies, [61]. All inhibitors were added 30 minutes prior to stimulation. For CPZ experiments, the media was replaced at the time of stimulation to remove CPZ. […]
Supernatants were collected 6 hours post stimulation. IL-6 and TNF-α were measured using the DuoSet enzyme linked immunoabsorbent assay (ELISA) kit (R&D systems) following the manufacturer's instructions.

U937 macrophages [2] = assay: IL-6 secretion of U937 macrophages stimulated with TNF-α (inhibitor control); type: cell-based, human; settings: pre-treatment with inhibitor, stimulation with TNF-α; data not shown
Experimental: (§2) Inhibition of endosomal acidification was achieved using inhibitors of V-ATPase, concanamycin A (100 ng/ml) and bafilomycin A1 (500 µM) (Sigma) or the ionophore monensin (1 µM) (Sigma). Clathrin-mediated endocytosis was inhibited with chlorpromazine (CPZ) (5 µM) (Sigma). Concentrations were chosen based on prior studies, [61]. All inhibitors were added 30 minutes prior to stimulation. For CPZ experiments, the media was replaced at the time of stimulation to remove CPZ.
(§3) Supernatants were collected 6 hours post stimulation.

U937 macrophages [3] = assay: IL-6 secretion (ELISA) of U937 macrophages stimulated with B. burgdorferi; type: cell-based, human; settings: for mean secretion of IL-6 by inhibitor-treated cells: B. burgdorferi MOI 10, 6 hours, serum-free, three experiments
Experimental: as §1
Clonal isolates of infectious, low passage B. burgdorferi sensu stricto (strain N40, clone D10E9) were cultured in Barbour-Stoenner-Kelley (BSK II) medium at 37°C as described, and used at multiplicity of infection (MOI) 10∶1.
as §2
For blocking antibody experiments, U937 macrophages were incubated for 2 hours prior to stimulation with 50 µg/ml of control mouse ascites fluid (NS-1 murine myeloma, Sigma-Aldrich) or anti-integrin α3β1 monoclonal antibody (P1B5, Millipore).
as §3

U937 macrophages [4] = assay: IFN-α1 transcript (qRT-PCR) in Pam3CSK4-stimulated U937 macrophages; type: cell-based, human; settings: 100 ng/ml Pam3CSK4, serum-free; for reduction of IFN-α1 transcript levels: 100 ng/ml concanamycin A or 1 µM monensin, 6 and 16 hours, p = 0.037
Experimental: as §2
Cells were collected at 6 hours post infection unless otherwise indicated. RNA was extracted using TRIzol (Invitrogen) following the manufacturer's instructions. RNA was resuspended in water containing RNaseOut (Invitrogen) and treated with DNaseI using the Turbo DNA-free kit (Ambion). cDNA was synthesized using the ImPromII kit (Promega) following the manufacturer's instructions. Quantification of cDNA was performed by quantitative RT-PCR (iCycler, BioRad) using the iQ SYBR Green Supermix (BioRad). Cycling parameters were 95°C for 15 minutes followed by 40 cycles of 95°C for 30 seconds, 60°C for 30 seconds, and 72°C for 30 seconds. Primers used to measure IL-6, TNF-α, and β-actin were published previously, [62]. Human integrin α3 primers, forward: 5′-[…]-3′, reverse 5′-[…]-3′ were generated by Primer Bank, ID# 6006011a1. Human integrin αv primers, forward: 5′-[…]-3′, reverse 5′-[…]-3′ were generated by Primer Bank, ID# 4504763a2. Human integrin α5 primers, forward: 5′-[…]-3′, reverse 5′-[…]-3′ were generated by Primer Bank, ID# 4504751a3. Human integrin α6 primers, forward: 5′-TCGGCACAGCAACCTTGAA-3′, reverse 5′-[…]-3′ were generated by Primer Bank, ID# 30046796a2. Human TLR2 primers, forward: 5′-[…]-3′, reverse 5′- […]-3′. Human TLR4 primers, forward: 5′-[…]-3′, reverse 5′-[…]-3′ were generated by Primer Bank, ID# 19924149a1. Human TLR7 primers, forward: 5′-[…]-3′, reverse 5′-[…]-3′. Human TLR9 primers, forward: 5′-GCGACCAGGCTCCCGAAGG-3′, reverse 5′-[…]-3′. Human IFN-α1 primers, forward: 5′-[…]-3′, reverse: 5′-[…]-3′ were generated by Primer Bank, ID# 13128950a1 [63], [64]. […]

U937 macrophages [5] = assay: TNF-α secretion (ELISA) of U937 macrophages stimulated with Pam3CSK4; type: cell-based, human; settings: Fig S5A; 100 ng/ml concanamycin A or 1 µM monensin; 100 ng/ml Pam3CSK4, 6 hours, serum-free
Experimental: as §2, §3

U937 macrophages [6] = assay: IL-6 transcript (qRT-PCR) in Pam3CSK4-stimulated U937 macrophages; type: cell-based, human; settings: 1 µM monensin; 100 ng/ml Pam3CSK4, 6 hours, serum-free; normalized to β-actin (Fig. S2)
Experimental: as §2
(§4) Cells were collected at 6 hours post infection unless otherwise indicated. RNA was extracted using TRIzol (Invitrogen) following the manufacturer's instructions. RNA was resuspended in water containing RNaseOut (Invitrogen) and treated with DNaseI using the Turbo DNA-free kit (Ambion). cDNA was synthesized using the ImPromII kit (Promega) following the manufacturer's instructions. Quantification of cDNA was performed by quantitative RT-PCR (iCycler, BioRad) using the iQ SYBR Green Supermix (BioRad). Cycling parameters were 95°C for 15 minutes followed by 40 cycles of 95°C for 30 seconds, 60°C for 30 seconds, and 72°C for 30 seconds. Primers used to measure IL-6, TNF-α, and β-actin were published previously, [62]. Human integrin α3 primers, forward: 5′-[…]-3′, reverse 5′-[…]-3′ were generated by Primer Bank, ID# 6006011a1. […]

U937 macrophages [7] = assay: IL-6 transcript (qRT-PCR) in B. burgdorferi-stimulated U937 macrophages; type: cell-based, human; settings: 1 µM monensin; B. burgdorferi MOI 10, 6 hours, serum-free (Fig. S4)
Experimental: as §2, §4

[8] = tested on: murine bone marrow derived macrophages; assay: IFN-β induction in murine bone marrow derived macrophages; type: cell-based; settings: data not shown
U937 macrophages [9] = assay: IFN-β transcript (qRT-PCR) in Pam3CSK4-stimulated U937 macrophages; type: cell-based, human; settings: 100 ng/ml Pam3CSK4, serum-free, 6 hrs or 16 hrs post stimulation
Experimental: Cells were collected at 6 hours post infection unless otherwise indicated. RNA was extracted using TRIzol (Invitrogen) following the manufacturer's instructions. RNA was resuspended in water containing RNaseOut (Invitrogen) and treated with DNaseI using the Turbo DNA-free kit (Ambion). cDNA was synthesized using the ImPromII kit (Promega) following the manufacturer's instructions. Quantification of cDNA was performed by quantitative RT-PCR (iCycler, BioRad) using the iQ SYBR Green Supermix (BioRad). Cycling parameters were 95°C for 15 minutes followed by 40 cycles of 95°C for 30 seconds, 60°C for 30 seconds, and 72°C for 30 seconds. Primers used to measure IL-6, TNF-α, and β-actin were published previously, [62]. Human integrin α3 primers, forward: 5′-[…]-3′, reverse 5′-[…]-3′ were generated by Primer Bank, ID# 6006011a1. Human integrin αv primers, forward: 5′-[…]-3′, reverse 5′-[…]-3′ were generated by Primer Bank, ID# 4504763a2. Human integrin α5 primers, forward: 5′-[…]-3′, reverse 5′-[…]-3′ were generated by Primer Bank, ID# 4504751a3. Human integrin α6 primers, forward: 5′-TCGGCACAGCAACCTTGAA-3′, reverse 5′-[…]-3′ were generated by Primer Bank, ID# 30046796a2. Human TLR2 primers, forward: 5′-[…]-3′, reverse 5′- […]-3′. Human TLR4 primers, forward: 5′-[…]-3′, reverse 5′-[…]-3′ were generated by Primer Bank, ID# 19924149a1. Human TLR7 primers, forward: 5′-[…]-3′, reverse 5′-[…]-3′. […]

[10] = Fig 5, serum-free, three experiments
[11] = 100 ng/ml concanamycin A, 500 µM bafilomycin A1, 1 µM monensin
[12] = Homo sapiens, U-937, 6 h, read-out: inhibition of B. burgdorferi induction of IL-6

Row | Molecule | decrease in Pam3CSK4-induced IL-6 secretion relative to control cells (U937 macrophages [1]; serum-free) [%] | mean secretion of IL-6 by inhibitor-treated cells (U937 macrophages [1]; [10]) [pg/mL] | change in secretion of IL-6 in response to TNF-α (U937 macrophages [2]) | mean secretion of IL-6 by inhibitor-treated cells (U937 macrophages [3]; [11]) [pg/mL] | reduction of IFN-α1 transcript levels (U937 macrophages [4]) [%] | mean secretion of TNF-α by inhibitor-treated cells (U937 macrophages [5]) [pg/mL] | also measured
1 | CN(C)CCCN1c2ccccc2Sc2ccc(Cl)cc21 [CPZ, chlorpromazine] | 49 | 340 | – | – | – | – | –
2 | CO/C1=C\C(C)=C\[C@@H](C)[C@@H](O)[C@@H](C)C/C(C)=C/C=C/[C@H](OC)[C@@H]([C@@H](C)[C@@H](O)[C@H](C)[C@@]2(O)C[C@@H](O)[C@H](C)[C@@H](C(C)C)O2)OC1=O [bafilomycin A1] | 37 | 430 | no significant change | 680 | – | – | inhibition at 500 µM (U937 macrophages [3]; [12]): 30%
3 | C/C=C/[C@H]1O[C@@](O)([C@@H](C)[C@H](O)[C@H](C)[C@H]2OC(=O)/C(OC)=C/C(C)=C/[C@@H](C)[C@@H](O)[C@@H](CC)[C@@H](O)[C@H](C)C/C(C)=C/C=C/[C@@H]2OC)C[C@@H](O[C@H]2C[C@@H](O)[C@H](OC(N)=O)[C@@H](C)O2)[C@@H]1C [concanamycin A] | 53 | 320 | no significant change | 437 | 84 | 928 | inhibition of B. burgdorferi induction of IL-6 (U937 macrophages [3]; 100 ng/ml concanamycin A, 500 µM bafilomycin A1, 1 µM monensin, MOI 10, 6 hours, p = 0.037): 56%
4 | CC[C@@]1([C@@H]2O[C@@H]([C@H]3O[C@@](O)(CO)[C@H](C)C[C@@H]3C)C[C@@H]2C)CC[C@H]([C@]2(C)CC[C@]3(C[C@H](O)[C@@H](C)[C@@H]([C@@H](C)[C@@H](OC)[C@H](C)C(=O)O)O3)O2)O1 [monensin] | 38 | 420 | decrease in IL-6 secretion | 567 | 88 | 567 | reduction of IL-6 transcript (U937 macrophages [6]): 32%; reduction of IL-6 transcript (U937 macrophages [7]): 51%; inhibition at 1 µM (U937 macrophages [3]; [12]): 40%
5 | palmitoyl-3-Cys-Ser-(Lys)4 [Pam3CSK4, synthetic TLR2/1 triacylated lipid ligand, prototypical bacterial lipopeptide (Invivogen)] | – | – | – | – | – | – | mean secretion of IL-6 (U937 macrophages [1]; Fig 1A, cells transduced with control shRNA, serum-free, mean of three independent experiments): 350 pg/mL; mean secretion of IL-6 (U937 macrophages [1]; Fig 2A, in the presence of 1% FBS, three experiments): 975 pg/mL; mean secretion of IL-6 (U937 macrophages [1]; Fig 2A, serum-free, three experiments): 1,048 pg/ml; mean secretion of IL-6 (U937 macrophages [1]; Fig 2B, control shRNA cells, 1% FBS): 974 pg/mL; mean secretion of IL-6 (U937 macrophages [1]; Fig 2B, control shRNA cells, serum-free): 1,048 pg/ml; mean secretion of IL-6 (U937 macrophages [1]; Fig 5, control cells (no inhibitor), serum-free, three experiments): 670 pg/mL; induction of IFN-β [8]: confirm Pam3CSK4-induced IFN-β; induction of IFN-α1 (interferon response) (U937 macrophages [4]): induces an interferon response; induction of IFN-β (U937 macrophages [9]): did not observe any induction
